From PMC11557314 (Frontiers in Pharmacology, 2024)
Where no end group is shown, it is not given here.

Tests used:
hDOPr [1] = target: T1, hDOPr (Homo sapiens, UniProt P41143); assay: Competitive radio binding assay with [3H]-diprenorphine on hDOPr-CHO cell membranes; conditions: read-out: Ki hDOPr; [3H]-diprenorphine 1 nM, 60 min 25°C; mean ± SEM
hKOPr [2] = target: T2, hKOPr (Homo sapiens, UniProt P41145); assay: biochemical; conditions: for Emax: read-out: Efficacy at hKOPr Emax
hMOPr = hMOPr (Homo sapiens, UniProt P35372); assay type: biochemical; conditions: for EC50: read-out: hMOPr EC50, stimulation of [35S]GTPγS binding
hDOPr [3] = target: T1, hDOPr; assay: [35S]GTPγS functional assay on hDOPr-CHO cell membranes; assay type: biochemical; conditions: Table 3, mean ± SEM; for hDOPr % stim, stimulation of [35S]GTPγS binding: normalized to DynA; for EC50: read-out: hDOPr EC50, stimulation of [35S]GTPγS binding
Protocol: CHO cells stably transfected with human KOPr, MOPr, and DOPr (hKOPr-CHO, hMOPr-CHO, and hDOPr-CHO, respectively) were provided by Prof. Liu-Chen (Temple University, Philadelphia, United States). The cells were grown in Gibco™ Dulbecco’s minimal essential medium (DMEM) for hKOPr-CHO or Gibco™ DMEM/F-12 for hMOPr and hDOPr. Both media were supplemented with 10% FBS (Gibco™), GlutaMAX (100 μg/mL; Gibco™), penicillin/streptomycin (100 μg/mL; Gibco™), and geneticin (G418, 400 μg/mL; Gibco™). HEK 293 cells were grown in high-glucose DMEM supplemented with 10% FBS (Gibco™), GlutaMAX (100 μg/mL; Gibco™), and penicillin/streptomycin (100 μg/mL; Gibco™). Cell cultures were maintained in a Heracell™ 150i CO2 incubator at 37°C and 5.0% CO2.
Functional assays were conducted on hKOPr-CHO, hMOPr-CHO, and hDOPr-CHO cell membranes (see above). The membranes were prepared in a buffer containing 20 mM HEPES, 10 μM GDP, cell membrane (10–30 μg), and 0.05 nM [^35S]GTPγS. The buffer containing the cell membranes was incubated with an increasing concentration of the test peptide diluted in 1 × HEPES, pH 7.4, in a total volume of 1 mL, for 60 min at 25°C. The peptide solutions were replaced by diluents for untreated controls. Non-specific binding was determined using unlabeled 10 μM GTPγS. Samples were rapidly washed three times with Tris-HCl and filtered through glass fiber filters (GF/B Whatman). The bound radioactivity was measured by liquid scintillation (Carl Roth GmbH, Karlsruhe, Germany) counting on a Packard 1600 TR Tri-Carb Beta counter (Canberra, Belgium).

hKOPr [4] = target: T2, hKOPr; assay: cell-based; assay type: cell-based; conditions: for Emax: HEK293, read-out: β-Arrestin recruitment, efficacy at hKOPr Emax; for EC50: read-out: β-Arrestin recruitment, potency at hKOPr EC50
[5] = tested on: p38 phosphorylation in hKOPr-CHO cells; assay: Western blot of phospho-p38 in hKOPr-CHO cells; assay type: cell-based, human; conditions: 1 µM, 10 min, ratio phosphorylated to non-phosphorylated protein
Protocol: hKOPr-CHO cells were seeded in 10-cm dishes and cultured until they reached 70%–80% confluency. Overnight serum starvation was initiated by replacing the culture medium with FBS-free medium [DMEM supplemented with 100 μg/mL GlutaMAX, 100 μg/mL penicillin/streptomycin, and 400 μg/mL geneticin (G418)]. […] The FBS-free medium was used as the control. After the treatment, cells were rinsed and harvested in cold PBS by scraping the dishes using a rubber policeman. Cell suspensions were centrifuged at 4°C for 7 min at 21,000 g, and the supernatants were removed. Pellets were then resuspended and washed in ice-cold PBS. […] Total proteins of the supernatant cell lysate were quantified by the biuret assay (Carl Roth GmbH, Karlsruhe, Germany). Antibody linearity ranges were determined for target proteins and the internal loading control, and the combined linear range was then used to determine how much sample should be loaded in order to produce a linear signal response. […] Immunoreactive bands were detected by incubating the membranes in a horseradish peroxidase-conjugated secondary antibody (1:5,000, Invitrogen), followed by incubation with enhanced chemiluminescence reagent (Merck Immobilon). […] To avoid errors introduced by stripping the membranes, total and phosphorylated proteins were analyzed from parallel gels. […]

[6] = read-out: Potency at hKOPr EC50
[7] = read-out: hKOPr EC50, stimulation of [35S]GTPγS binding

Sequence of hMOPr (P35372 whole entry): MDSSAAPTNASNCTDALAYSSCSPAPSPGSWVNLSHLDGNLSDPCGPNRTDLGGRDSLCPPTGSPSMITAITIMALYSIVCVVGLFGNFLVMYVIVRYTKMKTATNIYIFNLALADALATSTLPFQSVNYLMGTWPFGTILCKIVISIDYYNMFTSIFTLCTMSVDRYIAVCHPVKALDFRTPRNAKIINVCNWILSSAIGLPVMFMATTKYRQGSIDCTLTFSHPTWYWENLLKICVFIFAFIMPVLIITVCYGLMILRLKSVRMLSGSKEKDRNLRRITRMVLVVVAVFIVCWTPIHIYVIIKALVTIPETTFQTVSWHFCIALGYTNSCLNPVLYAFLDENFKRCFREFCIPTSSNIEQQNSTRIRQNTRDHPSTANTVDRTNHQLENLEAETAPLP
T1 sequence (P41143 whole entry): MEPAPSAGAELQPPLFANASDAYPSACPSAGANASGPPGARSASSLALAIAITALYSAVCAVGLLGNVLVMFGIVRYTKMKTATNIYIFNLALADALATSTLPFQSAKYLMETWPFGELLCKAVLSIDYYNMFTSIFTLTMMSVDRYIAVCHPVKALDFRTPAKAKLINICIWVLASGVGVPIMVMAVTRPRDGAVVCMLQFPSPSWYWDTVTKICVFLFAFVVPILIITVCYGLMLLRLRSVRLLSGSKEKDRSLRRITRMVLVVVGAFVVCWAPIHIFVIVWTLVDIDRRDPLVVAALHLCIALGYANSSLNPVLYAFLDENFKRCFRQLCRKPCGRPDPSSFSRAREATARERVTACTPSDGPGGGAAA
T2 sequence (P41145 whole entry): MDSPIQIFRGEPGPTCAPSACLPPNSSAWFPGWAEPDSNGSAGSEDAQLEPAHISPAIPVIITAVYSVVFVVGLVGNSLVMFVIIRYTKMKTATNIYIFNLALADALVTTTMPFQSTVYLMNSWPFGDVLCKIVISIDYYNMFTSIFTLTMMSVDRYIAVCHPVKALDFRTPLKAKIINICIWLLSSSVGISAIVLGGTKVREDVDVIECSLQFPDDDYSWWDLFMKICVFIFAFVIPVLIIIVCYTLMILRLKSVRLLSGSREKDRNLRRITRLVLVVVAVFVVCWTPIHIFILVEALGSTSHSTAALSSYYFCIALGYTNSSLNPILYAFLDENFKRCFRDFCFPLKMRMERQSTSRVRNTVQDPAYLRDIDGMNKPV

Row | Sequence | Ki (hDOPr [1]) | Selectivity DOPr/KOPr (GTPγS) (hKOPr [2]) | Selectivity MOPr/KOPr (GTPγS) (hKOPr [2]) | hKOPr % stim, stimulation of [35S]GTPγS binding (hKOPr [2]) | potency for hKOPr as compared to DynB (GTPγS) (hKOPr [2]) | preference for hKOPr over hDOPr (GTPγS) (hKOPr [2]) | preference for hKOPr over hMOPr (GTPγS) (hKOPr [2]) | Emax (hKOPr [2]) | EC50 (hKOPr [2]; [6]) | EC50 (hKOPr [2]; [7]) | hMOPr % stim, stimulation of [35S]GTPγS binding (hMOPr) | EC50 (hMOPr) | hDOPr % stim, stimulation of [35S]GTPγS binding (hDOPr [3]) | EC50 (hDOPr [3]) | stimulation of the receptor (β-arrestin recruitment) in comparison to DynB_WT (hKOPr [4]) | Emax (hKOPr [4]) | EC50 (hKOPr [4]) | p38 phosphorylation compared to DynB_WT [5] | potency for β-arrestin recruitment compared to DynB_WT (hKOPr [4])
1 | YGAFLRRAFKVVT [DynB_G3A/Q8A] | 417 ± 52 nM | 84 | 20 | 88.6 ± 3.1% | minor reduction in the potency | 84 fold | 20 fold | 88.6 ± 3.1% | 14.6 ± 1.57 nM | 14.6 ± 1.6 nM | 111 ± 7.7% | 297 ± 46.6 nM | 86.4 ± 10.3% | 1230 nM | lower stimulation | 88.7 ± 2.6% | 66.1 ± 1.6 nM | significantly less phosphorylated | 
2 | YGGFSRRQFKVVT [DynB_L5S] | 573 ± 22.6 nM | 17 | 6 | 99.1 ± 2.1% |  | 17 fold |  | 99.1 ± 2.1% | 17.7 ± 2.84 nM | 17.7 ± 2.8 nM | 93.4 ± 5.6% | 107 ± 8.6 nM | 86.7 ± 9.2% | 310 ± 50.4 nM |  | 95.1 ± 7.7% | 146 ± 26.5 nM | significantly less phosphorylated | significantly lower potency
